From ChEMBL document CHEMBL3286109, “Structure-activity relationship studies of indole-based compounds as small molecule HIV-1 fusion inhibitors targeting glycoprotein 41” (J Med Chem, 2014)

Legend:
[1] = Cytotoxicity against human MAGI-CCR5 cells assessed as inhibition of cell viability by MTS assay; format: cell-based; conditions: read-out: TC50 (the source's name)
[2] = test system: Human immunodeficiency virus 1; assay: Antiviral activity against HIV-1 3B infected in human MAGI-CCR5 cells assessed as inhibition of viral replication after 48 hrs by chemiluminescence assay; format: functional, organism-based; conditions: Human immunodeficiency virus 1, 3B, MAGI-CCR5, 48 h
[3] = Cytotoxicity against human TZM-bl cells assessed as inhibition of cell viability by resazurin assay; conditions: read-out: TC50 (the source's name)
[4] = Binding affinity to HIV1 Envelope glycoprotein gp41 Fe(env2.0)3 using C18FL as probe by fluorescence assay; set-up: species or system Human immunodeficiency virus 1
[5] = Inhibition of HIV1 HXB2 gp41-mediated cell-cell fusion between viral envelope-expressing human HL2/3 cells to human TZM-bl cells by luciferase reporter assay; format: cell-based; conditions: Human immunodeficiency virus 1, HXB2, TZM-bl
[6] = test system: Human immunodeficiency virus 1; assay: Antiviral activity against HIV-1 Ba-L infected in human MAGI-CCR5 cells assessed as inhibition of viral replication after 48 hrs by chemiluminescence assay; format: functional, organism-based; conditions: Human immunodeficiency virus 1, Ba-L, MAGI-CCR5, 48 h

| SMILES | CC50 [1] | EC50 [2] | CC50 [3] | Ki [4] | EC50 [5] | EC50 [6] |
| --- | --- | --- | --- | --- | --- | --- |
| COc1cccc(Cn2cnc3ccc(-c4ccc5ccn(Cc6cccc(C(=O)O)c6)c5c4)cc32)c1 | > 100 µM | 63 µM | > 100 µM | 4.7 µM | 45 µM | 56 µM |
| O=C(O)c1cccc(Cn2ccc3ccc(-c4ccc5ccn(Cc6ccccc6)c5c4)cc32)c1 | > 100 µM | 4.6 µM | > 50 µM | 3.5 µM | 2 µM | 4.4 µM |
| COc1cc(Cn2ccc3ccc(-c4ccc5ccn(Cc6cccc(C(=O)O)c6)c5c4)cc32)cc(OC)c1 | 49 µM | 1.5 µM | 93 µM | 0.9 µM | 2.3 µM | 1.5 µM |
| NC(=O)c1cccc(Cn2ccc3ccc(-c4ccc5ccn(Cc6cccc(C(=O)O)c6)c5c4)cc32)c1 | > 100 µM | 51 µM | > 100 µM | 0.8 µM | 6 µM | 39 µM |
| O=C(O)c1cccc(Cn2ccc3ccc(-c4ccc5cc(Cl)ccc5n4)cc32)c1 | > 100 µM |  | 50 µM |  |  | 48 µM |
| O=C(O)c1cccc(Cn2ccc3ccc(-c4ccc5ccn(Cc6cccc(C(=O)O)c6)c5c4)cc32)c1 | > 100 µM | 67 µM | > 100 µM | 0.6 µM | 12 µM | 58 µM |
| COc1cccc(Cc2c[nH]c3cc(-c4ccc5c(Cc6cccc(C(=O)O)c6)c[nH]c5c4)ccc23)c1 | 12 µM | 6.2 µM | 500 µM | 0.9 µM | 4 µM | 5.9 µM |
| COc1ccc(Cn2ccc3cc(-c4ccc5c(ccn5Cc5cccc(C(=O)O)c5)c4)ccc32)cc1 | 55 µM | 20 µM | > 100 µM | 3.9 µM | 12 µM | 18 µM |
| O=C(O)c1cccc(Cn2ccc3ccc(-c4ccc5ccn(Cc6ccc(C(F)(F)F)cc6)c5c4)cc32)c1 | 52 µM | 1 µM | > 50 µM | 1 µM | 2 µM | 0.9 µM |
| COc1cccc(Cc2c[nH]c3cc(-c4ccc5ccn(Cc6cccc(C(=O)O)c6)c5c4)ccc23)c1 | 24 µM | 5.8 µM | 33 µM | 0.9 µM | 6 µM | 5.6 µM |
| COC(=O)c1cccc(Cc2c[nH]c3ccc(-c4ccc5[nH]cc(Cc6cccc(C(=O)O)c6)c5c4)cc23)c1 | 31 µM | 4.8 µM | 99 µM | 1.2 µM | 2 µM | 5 µM |
| COc1cccc(-c2ccc3ccn(Cc4cccc(C(=O)O)c4)c3c2)c1 | > 100 µM |  | > 100 µM |  | 14 µM | 28 µM |
| O=C(O)c1cccc(Cc2c[nH]c3ccc(-c4ccc5cc[nH]c5c4)cc23)c1 | 80 µM | 13 µM | 194 µM | 1.7 µM | 5 µM | 13 µM |
| COc1cccc(Cn2cnc3cc(-c4ccc5ccn(Cc6cccc(C(=O)O)c6)c5c4)ccc32)c1 | > 100 µM | 49 µM | > 100 µM | 5.3 µM | 56 µM | 28 µM |
| O=C(O)c1cccc(Cn2cnc3cc(-c4ccc5cc[nH]c5c4)ccc32)c1 | > 100 µM | > 100 µM | > 100 µM | 16 µM | 124 µM | > 100 µM |
| COc1cccc(Cn2ccc3ccc(-c4ccc5ccn(Cc6cccc(C(=O)O)c6)c5c4)cc32)c1 | 37 µM | 0.9 µM | 71 µM | 1.1 µM | 1 µM | 0.9 µM |
| O=C(O)c1cccc(Cn2ccc3cc(-c4ccc5ccn(Cc6cccc(C(=O)O)c6)c5c4)ccc32)c1 | > 100 µM | 17 µM | > 100 µM | 0.7 µM | 2 µM | 20 µM |

| SMILES | CC50 [1] | EC50 [2] | CC50 [3] | Ki [4] | EC50 [5] | EC50 [6] |
| --- | --- | --- | --- | --- | --- | --- |
| COc1ccc(Cn2ccc3cc(-c4ccc5ccn(Cc6cccc(C(=O)O)c6)c5c4)ccc32)cc1 | 24 µM | 8.3 µM | 91 µM | 4.2 µM | 3.5 µM | 6.9 µM |
| O=C(O)c1cccc(Cn2ccc3ccc(-c4ccc5ccn(Cc6ccc(-c7ccccc7)cc6)c5c4)cc32)c1 | 55 µM | 2 µM | > 50 µM | 2 µM | 13 µM | 2.1 µM |
| O=C(O)c1cccc(Cn2ccc3cc(-c4ccc5cc(Cl)ccc5n4)ccc32)c1 |  |  | 100 µM |  | 8 µM | 6 µM |
| O=C(O)c1cccc(Cc2c[nH]c3cc(-c4ccc5cc[nH]c5c4)ccc23)c1 | 23 µM | 14 µM | 290 µM | 0.6 µM | 6 µM | 13 µM |
| Cn1nnc2ccc(Cn3ccc4ccc(-c5ccc6ccn(Cc7cccc(C(=O)O)c7)c6c5)cc43)cc21 | 52 µM | 9.4 µM | > 100 µM | 1.5 µM | 2.5 µM | 6.6 µM |
| Cn1ccc2ccc(-c3ccc4ccn(Cc5cccc(C(=O)O)c5)c4c3)cc21 | > 50 µM | 4.3 µM | > 50 µM | 0.3 µM | 1.3 µM | 4.5 µM |
| O=C(O)c1cccc(Cn2ccc3ccc(-c4ccc5ccn(Cc6ccc(F)cc6)c5c4)cc32)c1 |  |  | > 25 µM | 1.7 µM | 1.1 µM | 1.6 µM |
| COc1cccc(Cn2ccc3ccc(-c4ccc5ncn(Cc6cccc(C(=O)O)c6)c5c4)cc32)c1 | > 100 µM | 57 µM | > 100 µM | 6 µM | 34 µM | 54 µM |
| COc1cccc(Cn2ccc3ccc(-c4ccc5c(Cc6cccc(C(=O)O)c6)c[nH]c5c4)cc32)c1 | 34 µM | 18 µM | 57 µM | 1.6 µM | 7 µM | 18 µM |
| O=C(O)c1cccc(Cn2ccc3ccc(-c4ccc5ccn(Cc6ccc(Oc7ccccc7F)cc6)c5c4)cc32)c1 | > 100 µM | 5.5 µM | > 100 µM | 9.5 µM | 8.2 µM | 5.3 µM |
| O=C(O)c1cccc(Cn2cnc3ccc(-c4ccc5cc[nH]c5c4)cc32)c1 | > 100 µM | 36 µM | > 100 µM | 11 µM | 14 µM | 41 µM |
| COc1ccc(Cn2ccc3ccc(-c4ccc5c(ccn5Cc5cccc(C(=O)O)c5)c4)cc32)cc1 | 18 µM | 19 µM | > 100 µM | 3 µM | 7 µM | 18 µM |
| COc1ccc(Cn2ccc3ccc(-c4ccc5ccn(Cc6cccc(C(=O)O)c6)c5c4)cc32)cc1 | 32 µM | 0.9 µM | 20 µM |  |  | 0.9 µM |
| O=C(O)c1cccc(Cn2ccc3ccc(-c4ccc5ccn(Cc6ccc(COc7ccccc7)cc6)c5c4)cc32)c1 | > 100 µM | 32 µM | > 100 µM | 6.2 µM | 17 µM | 27 µM |
| O=C(O)c1cccc(Cn2ccc3ccc(-c4cccc(O)c4)cc32)c1 | 94 µM |  | 100 µM |  | 8 µM | 23 µM |
| COc1cccc(Cn2ccc3ccc(-c4ccc5c(c4)ncn5Cc4cccc(C(=O)O)c4)cc32)c1 | > 100 µM | > 100 µM | > 100 µM | 3.8 µM | 6 µM | 48 µM |
